A short description of data set [1]: Membrane transport of ions across gramicidin-containing liposomes (SPR). The following applies: gramicidin incorporated for K+ co-transport; FIG. 7. It is filed as physicochemical. An excerpt:
Information of this type is of high relevance in studies on how, for example, drugs influence the permeability of cell-membranes. Both passive and membrane-protein mediated transfer of uncharged solutes is of high biological and pharmaceutical relevance. However, for a method like this to be generically applicable for any type of membrane transport reaction, also ion translocation should be possible to measure, which is today typically measured using patch-clamp based assays. FIG. 7 illustrates membrane transport of iodide (˜10 s) and chloride (˜200 s) ions, in excellent agreement with literature data. Note that gramicidin was incorporated into the liposomes in order to ensure co-transport of counter ions (K+), thus prohibiting the establishment of an electrostatic transmembrane potential that would otherwise restrict the unhindered transport of anions.

Data set [2] can be described thus: Glycerol transport across liposome membrane versus cholesterol content (SPR). It is filed as physicochemical. As for the experimental part:
At first 70 nm liposomes were provided in accordance with Example 1. […] Also shown in FIG. 4b (dashed curve) is an identical rinsing step without immobilized liposomes, illustrating that the time constant of the fluidic exchange is faster than 100 ms, which is sufficient to temporally resolve these transport measurements. The rate of glycerol release was examined in a temperature interval from 8 to 22° C. […] In agreement with expectations, the rate of transport across the lipid membrane increases with increasing temperature, and Arrhenius plots display a linear dependence between ln(1/) and 1/T, yielding activation energies in excellent agreement with literature data for the three solutes (glycerol, urea and hydroxyurea) investigated, see FIG. 5b.
70 nm liposomes containing 40% cholesterol were provided in accordance with Example 1. Binding of the liposomes followed by repeated injection cyclodextrin, which removes cholesterol from the lipid bilyaer of the liposomes is shown in FIG. 6a. The SPR response is proportional to the interfacial refractive index, which makes it possible to quantify the removal of cholesterol. […]
Each injection of cyclodextrin (FIG. 6a) was followed by an injection pulse of glycerol, which enabled the time constant of glycerol transport versus cholesterol content to be quantified, ranging from around 7 s at 40% cholesterol to 1 s at 14% cholesterol, see FIG. 6b. […]

The nature of data set [3]: Melittin binding to tethered POPC liposomes (Biacore SPR). The protocol:
Liposomes were made by first evaporating the solvent, chloroform, from the POPC lipids using a flow of nitrogen gas. The dried lipids were then kept under the flow of nitrogen gas for at least one hour after which HEPES-2 was added to yield a 4 mg/ml concentration of POPC. The dissolved POPC lipids were vortexed for at least 30 min to yield multi-laminar liposomes. Uni-laminar liposomes were produced using a mini extruder and polycarbonate membranes with pore size of 50 nm from Avanti Polar Lipids® with a 50 nm pore size. […] The liposomes were stored under nitrogen gas at 4° C. until use (within 2 days).
A mixture (300 μl) of HS-PEG (200 μg/ml) and HS-PEG-Biotin (20 μg/ml), dissolved in HEPES-2, were injected over the Biacore® Au sensor chip at a flow rate of 5 μl/min. Then a mixture (150 μl) of NeutrAvidin (40 μg/ml) and Biotin-DNA (0.7 μM) was injected and bound to HS-PEG-Biotin at the surface.
POPC liposomes (2 mg/ml, in HEPES-2) containing cholesterol-DNA tags (3 DNA tags per liposome) were injected at a flow rate of 5 μl/min. The end of the DNA-part of the cholesterol-DNA tag is single-stranded and complementary in sequence to the Biotin-DNA at the surface enabling tethering of the liposomes to the sensor surface.
The reversible binding of melittin was measured in the Biacore® instrument directly after the tethering of POPC liposomes was finished. Melittin solutions at a concentration of 0.5-40 μM in HEPES-2 were injected in sequence. During injection the melittin molecules bind to the liposomes and after the injection is terminated, running buffer (HEPES-2) flows over the surface and melittin dissociates. After the dissociation was complete a new melittin solution of different concentration was injected.
Melittin solutions of various concentrations (0.5-40 μM) were injected over the bound liposomes in the Biacore® instrument at 5 μl/min. The change in response (RU) as a function of time (t) was fitted to RU=RU0+RU1*(1−exp(−t/τ1))+RU2*(1−exp(−t/τ2)). However, the change in RU during the injection of 0.5 μM melittin could be described using only one exponential (i.e. RU2=0). It is known that high concentrations of melittin can rupture cells and liposomes. Unspecific binding (i.e. binding to the biosensor surface without liposomes) of melittin was small, less than 5% of the binding of melittin to the liposome membrane surface (data not shown).
(SPR reads the build-up and loss of mass on a sensor chip optically.)

A short description of data set [4]: Melittin pore mediated sucrose uptake into tethered liposomes (SPR refractive index). It counts as physicochemical. As for the experimental part: After tethering of NeutrAvidin/Biotin-DNA the following injections were made in sequential order; 0.1 M sucrose, 2 mg/ml cholesterol-DNA tagged POPC-liposomes, 0.1 M sucrose, 40 μM melittin, 0.1 M sucrose, 0.1 M sucrose, 0.1 M sucrose. All samples were dissolved in HEPES-2.
A simple method for real-time and label-free uptake measurements of analytes across membranes at a biosensor surface would be of great value when investigating for example membrane transporters. Here we wanted to test if it was possible to measure the uptake of an analyte, sucrose, through the melittin pore by simply detecting the change in refractive index of the solution inside the liposome caused by the analyte as it is taken up.
Adding sucrose changes the refractive index of the solution in the detection volume, i.e. the volume corresponding to the evanescent field above the sensor surface, which is manifested as a shift in RU. […]
The amplitude of the uptake decrease from S3 to S5, which is explained by a decreasing number of liposomes having pores. […] The expected RU of the 7400 sucrose molecules (0.1 M) inside the liposome can be calculated from the obtained response of immobilizing the liposome itself (RU=6790). […] Since only ˜85% of the liposomes have pores the expected value is 480/0.85≈560 RU, which is in good agreement with the measured response of 530 RU from the S3 injection.

Data set [5] can be described thus: Cyclodextrin removal of cholesterol from liposome bilayer (SPR). Conditions: after seven injections; start 40% cholesterol. The text has this: 70 nm liposomes containing 40% cholesterol were provided in accordance with Example 1. Binding of the liposomes followed by repeated injection cyclodextrin, which removes cholesterol from the lipid bilyaer of the liposomes is shown in FIG. 6a. The SPR response is proportional to the interfacial refractive index, which makes it possible to quantify the removal of cholesterol. After seven injections of cyclodextrin, the cholesterol content was reduced to 14%.

Where [6] appears, read: outer membrane, fast phase, fit of k1 vs [Mel]B, 0.5-40 μM, HEPES-2.

`Cl` [chloride] returned a membrane transport time in data set [1] of roughly 200 s. Turning to `OCC(O)CO` [glycerol], the “time constant of glycerol transport” value in data set [2] (14% cholesterol) is listed as roughly 1 s; in data set [2] (40% cholesterol), “around 7 s”. `I` [iodide] yielded a membrane transport time in data set [1] of roughly 10 s.

On to `CC[C@H](C)[C@H](NC(=O)CN)C(=O)NCC(=O)N[C@@H](C)C(=O)N[C@H](C(=O)N[C@@H](CC(C)C)C(=O)N[C@@H](CCCCN)C(=O)N[C@H](C(=O)N[C@@H](CC(C)C)C(=O)N[C@H](C(=O)N[C@H](C(=O)NCC(=O)N[C@@H](CC(C)C)C(=O)N1CCC[C@H]1C(=O)N[C@@H](C)C(=O)N[C@@H](CC(C)C)C(=O)N[C@H](C(=O)N[C@@H](CO)C(=O)N[C@@H](Cc1c[nH]c2ccccc12)C(=O)N[C@H](C(=O)N[C@@H](CCCCN)C(=O)N[C@@H](CCCNC(=N)N)C(=O)N[C@@H](CCCCN)C(=O)N[C@@H](CCCNC(=N)N)C(=O)N[C@@H](CCC(N)=O)C(=O)N[C@@H](CCC(N)=O)C(N)=O)[C@@H](C)CC)[C@@H](C)CC)[C@@H](C)O)[C@@H](C)O)C(C)C)C(C)C` [melittin], for which, in data set [3] (linear fit of k2 vs [Mel]B), the “k+2 (apparent, slower kinetic phase, binding to inner membrane)” value came out at 56 M⁻¹ s⁻¹ and the “k−2 (slower kinetic phase, binding to inner membrane)” value came to 0.0046 s⁻¹. In data set [3] (setting [6]), the “microscopic off-rate k−1 of melittin with the liposome membrane surface” value worked out at 0.032 s⁻¹ and the “microscopic on-rate k+1 of melittin with the liposome membrane surface” value turned out to be 3684 M⁻¹ s⁻¹. With `OC[C@H]1O[C@@](CO)(O[C@H]2O[C@H](CO)[C@@H](O)[C@H](O)[C@H]2O)[C@@H](O)[C@@H]1O` [sucrose], the “decay time for uptake of sucrose τ3” value in data set [4] (0.1 M sucrose after 40 μM melittin (S3), estimated from FIG. 3) is “≈ 20 sec”. Also, the “number of sucrose molecules that cross the membrane per liposome” value in data set [4] (in ˜20 sec, inside concentration 0.1 M) was roughly 7400.

Consider cyclodextrin, for which the “cholesterol content of liposomes after cyclodextrin” value in data set [5] is 14%.

Values taken from patent US9784746B2, “Method for studying transport of an agent across a bilayer membrane in bioanalytical sensor applications” (Bio-Rad Laboratories, Inc., priority 2008, dated 2017).
